ChEMBL document CHEMBL2073973, “Mitotracker green is a P-glycoprotein substrate” (Biosci Rep, 2003)

Target: ATP-dependent translocase ABCB1 (Homo sapiens, UniProt P08183)
Test: TP_TRANSPORTER: cell accumulation in Lucena-1 cells
Format: functional, cell-based

ATP-dependent translocase ABCB1, sequence (P08183 whole entry): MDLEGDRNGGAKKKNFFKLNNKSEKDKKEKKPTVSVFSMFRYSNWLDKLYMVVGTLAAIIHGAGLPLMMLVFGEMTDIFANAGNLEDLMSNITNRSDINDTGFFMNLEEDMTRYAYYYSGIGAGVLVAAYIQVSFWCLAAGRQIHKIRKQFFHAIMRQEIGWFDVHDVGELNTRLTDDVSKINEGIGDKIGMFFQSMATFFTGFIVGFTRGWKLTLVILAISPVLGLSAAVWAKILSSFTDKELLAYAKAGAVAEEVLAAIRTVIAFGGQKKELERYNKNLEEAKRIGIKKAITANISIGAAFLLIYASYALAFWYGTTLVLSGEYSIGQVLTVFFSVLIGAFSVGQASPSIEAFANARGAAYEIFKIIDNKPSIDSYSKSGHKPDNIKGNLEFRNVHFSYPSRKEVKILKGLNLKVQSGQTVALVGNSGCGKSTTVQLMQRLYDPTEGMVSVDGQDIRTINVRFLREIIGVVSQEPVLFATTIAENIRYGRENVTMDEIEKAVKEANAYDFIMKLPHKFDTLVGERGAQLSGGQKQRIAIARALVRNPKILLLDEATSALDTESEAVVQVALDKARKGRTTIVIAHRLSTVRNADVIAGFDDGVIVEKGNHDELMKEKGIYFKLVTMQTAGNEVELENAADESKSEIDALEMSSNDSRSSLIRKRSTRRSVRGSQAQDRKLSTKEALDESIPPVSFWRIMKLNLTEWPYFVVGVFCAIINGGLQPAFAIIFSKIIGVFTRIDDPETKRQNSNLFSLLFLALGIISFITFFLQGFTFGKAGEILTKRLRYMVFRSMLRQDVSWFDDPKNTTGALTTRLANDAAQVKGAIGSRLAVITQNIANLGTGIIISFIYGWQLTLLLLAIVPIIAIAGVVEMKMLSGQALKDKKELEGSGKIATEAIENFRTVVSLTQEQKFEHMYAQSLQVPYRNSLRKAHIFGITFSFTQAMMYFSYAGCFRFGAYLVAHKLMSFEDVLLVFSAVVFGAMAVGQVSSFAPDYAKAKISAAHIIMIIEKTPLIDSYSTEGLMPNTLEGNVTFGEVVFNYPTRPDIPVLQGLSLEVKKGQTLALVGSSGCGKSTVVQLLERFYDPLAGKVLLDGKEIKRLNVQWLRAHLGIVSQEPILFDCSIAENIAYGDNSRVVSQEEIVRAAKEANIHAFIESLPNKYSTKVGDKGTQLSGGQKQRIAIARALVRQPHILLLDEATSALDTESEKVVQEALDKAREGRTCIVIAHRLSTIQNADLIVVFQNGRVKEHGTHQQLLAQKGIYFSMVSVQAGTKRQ

Activity: substrate [+]
Structure (SMILES): CN1C(=CC=Cc2n(Cc3ccc(CCl)cc3)c3cc(Cl)c(Cl)cc3[n+]2Cc2ccc(CCl)cc2)Oc2ccccc21.[Cl-] [MITOTRACKER GREEN]
